Test results: patent US8901118B2, “Compounds and methods for kinase modulation, and indications therefor” (Plexxikon Inc., priority 2010, dated 2014)

Molecular target: TrkA kinase (Homo sapiens, UniProt P04629)
Assay: TrkA kinase biochemical activity assay (AlphaScreen)
Settings: 100 μM ATP; read-out: Biochemical Inhibition IC50 TrkA
Outline: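 IC50 values come from AlphaScreen PY20/streptavidin bead signal versus compound concentration. Kinase reaction: 1 ng/well TrkA, 100 μM ATP, 30 nM biotin-(E4Y)10 substrate, Mn2+-containing Hepes buffer pH 7.5, 5% DMSO, 40 min, room temperature; TrkC assayed by the same approach.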

Chain of TrkA kinase (P04629 33-796): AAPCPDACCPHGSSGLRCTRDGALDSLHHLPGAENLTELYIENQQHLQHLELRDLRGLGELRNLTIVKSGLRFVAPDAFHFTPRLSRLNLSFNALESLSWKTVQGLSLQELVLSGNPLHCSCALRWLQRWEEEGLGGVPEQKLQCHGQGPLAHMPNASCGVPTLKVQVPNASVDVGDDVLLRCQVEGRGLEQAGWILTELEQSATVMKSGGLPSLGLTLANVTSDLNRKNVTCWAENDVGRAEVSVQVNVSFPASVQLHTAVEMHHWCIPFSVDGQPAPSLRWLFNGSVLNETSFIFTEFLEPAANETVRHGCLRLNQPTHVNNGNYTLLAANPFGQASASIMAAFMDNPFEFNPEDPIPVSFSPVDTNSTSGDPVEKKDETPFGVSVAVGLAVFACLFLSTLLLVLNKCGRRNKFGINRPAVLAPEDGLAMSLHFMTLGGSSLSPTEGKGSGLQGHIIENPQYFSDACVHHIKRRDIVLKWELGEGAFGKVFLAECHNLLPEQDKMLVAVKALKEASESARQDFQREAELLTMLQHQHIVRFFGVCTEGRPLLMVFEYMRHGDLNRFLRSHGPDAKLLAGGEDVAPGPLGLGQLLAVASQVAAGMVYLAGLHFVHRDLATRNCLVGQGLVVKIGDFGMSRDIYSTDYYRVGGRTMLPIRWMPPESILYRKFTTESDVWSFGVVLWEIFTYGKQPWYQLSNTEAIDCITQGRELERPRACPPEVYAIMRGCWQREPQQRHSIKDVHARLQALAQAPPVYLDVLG

IC50 | Structure (SMILES)
< 100 nM | Cc1cnc2[nH]cc(Cc3cnc(Nc4cc(-c5ccc(F)cc5)n[nH]4)nc3)c2c1 [Compound P-3028, [5-(4-Fluoro-phenyl)-2H-pyrazol-3-yl]-[5-(5-methyl-1H-pyrrolo[2,3-b]pyridin-3-ylmethyl)-pyrimidin-2-yl]-amine]
< 1000 nM | Cc1cnc2[nH]cc(Cc3cnc(Nc4cc(C(C)(C)C)n[nH]4)nc3)c2c1 [Compound P-3029, (5-tert-Butyl-2H-pyrazol-3-yl)-[5-(5-methyl-1H-pyrrolo[2,3-b]pyridin-3-ylmethyl)-pyrimidin-2-yl]-amine]
< 1000 nM | Cc1cnc2[nH]cc(Cc3cnc(Nc4ccc(S(C)(=O)=O)cc4)nc3)c2c1 [Compound P-3034, (4-Methanesulfonyl-phenyl)-[5-(5-methyl-1H-pyrrolo[2,3-b]pyridin-3-ylmethyl)-pyrimidin-2-yl]-amine]
< 100 nM | Fc1nc(Nc2ccc(C3CC3)nc2)ccc1Cc1c[nH]c2ncccc12 [Compound P-3053, (6-Cyclopropyl-pyridin-3-yl)-[6-fluoro-5-(1H-pyrrolo[2,3-b]pyridin-3-ylmethyl)-pyridin-2-yl]-amine]
< 100 nM | Cc1cncc(Nc2ccc(C(=O)c3c[nH]c4ncnc(C5CC5)c34)c(F)n2)c1 [Compound P-4039, (4-Cyclopropyl-7H-pyrrolo[2,3-d]pyrimidin-5-yl)-[2-fluoro-6-(5-methyl-pyridin-3-ylamino)-pyridin-3-yl]-methanone]
< 1000 nM | Fc1nc(NC2CCC(F)(F)CC2)ccc1Cc1c[nH]c2ncnc(NC3CC3)c12 [Compound P-4129, N-cyclopropyl-5-[[6-[(4,4-difluorocyclohexyl)amino]-2-fluoro-3-pyridyl]methyl]-7H-pyrrolo[2,3-d]pyrimidin-4-amine]
< 10 nM | CSc1ccc(Nc2ncc(Cc3c[nH]c4ncc(C)cc34)cn2)cc1 [Compound P-3033, [5-(5-Methyl-1H-pyrrolo[2,3-b]pyridin-3-ylmethyl)-pyrimidin-2-yl]-(4-methylsulfanyl-phenyl)-amine]
< 10 nM | Cc1cnc2[nH]cc(C(=O)c3ccc(Nc4ccc(C5CC5)nc4)nc3F)c2c1 [Compound P-3051, [6-(6-Cyclopropyl-pyridin-3-ylamino)-2-fluoro-pyridin-3-yl]-(5-methyl-1H-pyrrolo[2,3-b]pyridin-3-yl)-methanone]
< 10 nM | Fc1nc(Nc2ccc(C3CC3)nc2)ccc1Cc1c[nH]c2ncnc(NCC(F)(F)F)c12 [Compound P-4130, 5-[[6-[(6-cyclopropyl-3-pyridyl)amino]-2-fluoro-3-pyridyl]methyl]-N-(2,2,2-trifluoroethyl)-7H-pyrrolo[2,3-d]pyrimidin-4-amine]
< 10 nM | CCc1ccc(Nc2ccc(C(=O)c3c[nH]c4ncc(C)cc34)c(F)n2)cn1 [Compound P-3049, [6-(6-Ethyl-pyridin-3-ylamino)-2-fluoro-pyridin-3-yl]-(5-methyl-1H-pyrrolo[2,3-b]pyridin-3-yl)-methanone]
> 1000 nM | Cc1cnc2[nH]cc(Cc3cnc(Nc4cc(C5CC5)n[nH]4)nc3)c2c1 [Compound P-3032, (5-Cyclopropyl-2H-pyrazol-3-yl)-[5-(5-methyl-1H-pyrrolo[2,3-b]pyridin-3-ylmethyl)-pyrimidin-2-yl]-amine]
< 10 nM | Cc1cnc2[nH]cc(Cc3cnc(Nc4ccc(C(C)(C)C)cc4)nc3)c2c1 [Compound P-3030, (4-tert-Butyl-phenyl)-[5-(5-methyl-1H-pyrrolo[2,3-b]pyridin-3-ylmethyl)-pyrimidin-2-yl]-amine amine]
< 1000 nM | Fc1nc(NC2CCC(F)(F)CC2)ccc1Cc1c[nH]c2ncnc(NCC(F)(F)F)c12 [Compound P-4128, 5-[[6-[(4,4-difluorocyclohexyl)amino]-2-fluoro-3-pyridyl]methyl]-N-(2,2,2-trifluoroethyl)-7H-pyrrolo[2,3-d]pyrimidin-4-amine]
< 10 nM | O=C(c1ccc(Nc2ccc(C3CC3)nc2)nc1F)c1c[nH]c2ncccc12 [Compound P-3052, [6-(6-Cyclopropyl-pyridin-3-ylamino)-2-fluoro-pyridin-3-yl]-(1H-pyrrolo[2,3-b]pyridin-3-yl)-methanone]
< 100 nM | Cc1cncc(Nc2ccc(Cc3c[nH]c4ncnc(C5CC5)c34)c(F)n2)c1 [Compound P-4038, [5-(4-Cyclopropyl-7H-pyrrolo[2,3-d]pyrimidin-5-ylmethyl)-6-fluoro-pyridin-2-yl]-(5-methyl-pyridin-3-yl)-amine]
< 100 nM | Cc1cnc2[nH]cc(Cc3cnc(Nc4ccc(C(O)(C(F)(F)F)C(F)(F)F)cc4)nc3)c2c1 [Compound P-3031, 1,1,1,3,3,3-Hexafluoro-2-{4-[5-(5-methyl-1H-pyrrolo[2,3-b]pyridin-3-ylmethyl)-pyrimidin-2-ylamino]-phenyl}-propan-2-ol]
< 10 nM | CCc1ccc(Nc2ccc(Cc3c[nH]c4ncc(C)cc34)c(F)n2)cn1 [Compound P-3048, (6-Ethyl-pyridin-3-yl)-[6-fluoro-5-(5-methyl-1H-pyrrolo[2,3-b]pyridin-3-ylmethyl)-pyridin-2-yl]-amine]
< 100 nM | Cc1cnc2[nH]cc(Cc3ccc(Nc4ccc(C5CC5)nc4)nc3F)c2c1 [Compound P-3050, (6-Cyclopropyl-pyridin-3-yl)-[6-fluoro-5-(5-methyl-1H-pyrrolo[2,3-b]pyridin-3-ylmethyl)-pyridin-2-yl]-amine]
< 100 nM | COc1ccc(Nc2ccc(Cc3c[nH]c4ncnc(C)c34)c(F)n2)cn1 [Compound P-4002, [6-Fluoro-5-(4-methyl-7H-pyrrolo[2,3-d]pyrimidin-5-ylmethyl)-pyridin-2-yl]-(6-methoxy-pyridin-3-yl)-amine]
